Laboratory results reported in paper PMC2568864, “Chemical Dissection of the Link between Streptozotocin, O-GlcNAc, and Pancreatic Cell Death” (Chemistry & Biology, 2008).

Target: T1, human O-GlcNAcase (hOGA) (Homo sapiens, UniProt O60502)
T1 construct: gene OGA; residues 53–916, GST fusion
T1 sequence (O60502 53-916): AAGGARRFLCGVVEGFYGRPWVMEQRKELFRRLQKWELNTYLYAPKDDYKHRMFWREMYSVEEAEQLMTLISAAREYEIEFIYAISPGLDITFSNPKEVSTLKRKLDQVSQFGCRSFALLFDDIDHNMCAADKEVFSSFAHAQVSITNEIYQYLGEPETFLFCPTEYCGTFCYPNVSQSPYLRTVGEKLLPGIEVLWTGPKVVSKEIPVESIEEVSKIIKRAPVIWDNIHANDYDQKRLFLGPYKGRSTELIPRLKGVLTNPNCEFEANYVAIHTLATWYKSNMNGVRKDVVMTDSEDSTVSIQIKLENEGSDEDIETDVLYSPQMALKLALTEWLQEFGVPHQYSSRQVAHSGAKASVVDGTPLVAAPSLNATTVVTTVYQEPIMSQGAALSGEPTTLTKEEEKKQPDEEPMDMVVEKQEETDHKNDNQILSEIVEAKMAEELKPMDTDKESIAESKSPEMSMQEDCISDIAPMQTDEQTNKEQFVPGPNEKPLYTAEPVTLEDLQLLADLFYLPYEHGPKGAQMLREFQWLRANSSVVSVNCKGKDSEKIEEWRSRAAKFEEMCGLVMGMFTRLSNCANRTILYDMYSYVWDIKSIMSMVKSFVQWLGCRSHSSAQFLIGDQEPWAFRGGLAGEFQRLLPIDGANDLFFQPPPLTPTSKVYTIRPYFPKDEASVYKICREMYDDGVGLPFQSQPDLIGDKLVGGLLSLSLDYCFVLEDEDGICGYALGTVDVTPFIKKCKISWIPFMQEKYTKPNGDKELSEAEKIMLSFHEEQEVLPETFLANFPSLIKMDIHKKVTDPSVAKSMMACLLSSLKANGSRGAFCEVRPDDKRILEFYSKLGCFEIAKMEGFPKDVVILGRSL
Assay: steady-state kinetics with fluorogenic 4MU-GlcNAc, Lineweaver-Burk, competitive inhibition fit
Assay type: biochemical

## CN(N=O)C(=O)N[C@H]1C(O)O[C@H](CO)[C@@H](O)[C@@H]1O (stereo partly shown) [STZ, streptozotocin]
  Ki: 64 ± 3 µM
